According to US5330992A, “1-cyclopropyl-4-pyridyl-quinolinones” (priority 1992, dated 1994):

Experiments:
[1] = In vivo antitumor assay, Colo38(sc); set-up: species or system mouse; settings: mouse, in vivo, drug route iv, Ex 26 qd 3-5 bid 6-11, Ex 30 and 33 qd 3-11
Text: (§1) Mice: Inbred: C3H/He and NCR-nu; and Hybrids: B6D2Fl (C57BL/6 females X DBA/2 males, CD2Fl (Balb/c females X DBS/2 males) and B6x C3fl (C57BL/6 x C3H) were bred at Wayne State University from strained obtained from the Frederick Cancer Research Facility, Frederick, Md. or purchased from commercial suppliers.
(§2) Tumors: Murine Tumor: P388 and an adriamycin-resistant (ADR) subline P388/ADR leukemia and the following transplantable solid tumors of mice were used for in Vivo testing: B16 melanoma (B16), pancreatic ductal adenocarcinoma No. 03 (Panc 03), colon adenocarcinoma No. 38 (colo 38), mammary ductal adenocarcinoma No. 16/C (Mam16) and an adriamycin-resistantsubline Mam16C/ADR. Human tumor: A single human tumor, mammary carcinoma MX-1 (MX1) was used for in vivo testing. All tumors are in the Developmental Therapeutics Program frozen tumor respository, maintained by the Biological Testing Branch, Frederick Md. Each has a detailed description, code identification number, and list of references at the National Tumor Repository. Murine tumors were maintained in the mouse strain of origin and were transplanted in the appropriate F1 hydrid (or the strain of origin) for therapy trials. Human mammary carcinoma MX-1 MX1) was maintained as a subcutaneous implant in either athymic Swiss (Cr: NIH(S)-nu) or athymic random bred (NCR-nu) mice and transplanted in NCR-nu for therapy trials.
(§3) Chemotherapy: For pancreatic ductal adenocarcinoma No. 3, colon adenocarcinoma No. 38 (colo38), lung carcinoma No. 12 (LC12) and both adriamycin-sensitive (RP) and -resistant ADR) mammary ductal adenocarcinoma No. 16 (Mam16) tumors, the following methods were used to help ensure a more uniform tumor burden per mouse (thus reducing the requirement for greater numbers of mice per group), bilateral tumor implants were used. The animals necessary to begin an experiment were pooled, implanted bilaterally s.c. on day zero with 30-60-mg tumor fragments using a 12-gauge trocar, and again pooled before randomization to the various treatment and control groups. Chemotherapy was started within three days after tumor implantation while the number of cells per mouse was relatively small (1×10^7 […]).
(§4) Quantitative end points used assess antitumor activity included % Increased Life Span (% ILS), Tumor Cell Kill (Log10 kill), and Tumor Growth Inhibition (T/C). Long Term Survivors (45 or 60 day) were excluded from calculations of % ILS and Tumor Cell Kill.
(§5) Tumors were measured with a caliper once or twice weekly (as needed) until either tumors exceeded 1600 mg or cure was assured. Tumor weights were estimated from two-dimensional measurements: Tumor Weight (mg)=(a×b^2) / 2, where a and b are the tumor length and width (nun) respectively. Measurements were carried out simultaneously in both treatment and control groups. When the control group tumors reached approximately 750-1500 mg in size (median of group), the median tumor weight of each group was determined (including zeros). The T/C value in percent is an indiation of antitumor effectiveness. The % T/C was calculated from the following formula for solid murine tumor models: [formula] where T and C are median tumor weights of the treatment and control groups, respectively. A T/C equal to or less than 42% is considered significant antitumor activity. A T/C value <10% is indicative of a high degree of antitumor activity and is the level used by National Cancer Institute to justify further development if other requirements are met (termed DN-2 level activity). By convention the T/C value for the mammary carcinoma MX-1 models is calculated by the parameter of change in tumor weight. The % T/C was calculated from the following formula for MX-1 models [formula] where ΔT and ΔC are the change in mean tumor weight of the test and control groups, respectively, and T (initial) is the initial mean tumor weight of the test group. […] A reproducible % T/C ≤10 is considered significant activity.

[2] = tested on: colon adenocarcinoma No. 38 (colo 38); experiment: In vivo antitumor assay, Colo38(sc); set-up: species or system mouse; settings: drug route iv, Ex 26 qd 3-5 bid 6-11, Ex 30 and 33 qd 3-11
Text: as §1, §2, §3, §4, §5

[3] = In vivo antitumor assay, MX1(src); set-up: species or system human tumor in athymic NCR-nu mice; settings: mouse, in vivo, drug route ip, qd 1,5,9
Text: as §1, §2
(§6) For P388 and P388/ADR leukemia studies the tumor cells were implanted either IP or intravenously (IV) on day zero and treatment was started on day one. For B16 melanoma (B16) studies, the tumor cells were implanted IP on day zero and treatment was started on day one. Tirered controls were also included to facilitate the calculation of tumor cell kill. For mammary carcinoma MX-1 studies, tumors were implanted with 1) subcutaneously (sc) (14-mg fragment of s.c. donor tumor) in the axillary region or 2) under the subrenal capsule (src) (10×10×10 ocular micrometer unit fragment of s.c. donor tumor). Treatment started on the day after subrenal capsule tumor implant or when the subcutaneous tumor implant had reached 100-700 mg.
as §4, §5

[4] = tested on: human mammary carcinoma MX-1 (MX1); experiment: In vivo antitumor assay, MX1(src); set-up: species or system human tumor in athymic NCR-nu mice; settings: drug route ip, qd 1,5,9, change in mean tumor weight
Text: as §1, §2, §6, §4, §5

[5] = In vivo antitumor assay, P388(ip); settings: mouse, in vivo
Text: as §1, §2, §6, §4
(§7) Endpoints were calculated as follows: % ILS [formula] where Dt is the median day of death for treated and Dc is the median day of death for control groups. A % ILS ≥20 or ≥25 for P388 and B16 intraperitoneal models, respectively, is indicative of a significant degree of antitumor activity. A % ILS ≥75 or ≥50 for P388 and B16 intraperitoneal models, respectively, is indicative of a high degree of antitumor activity and is the level used by National Cancer Institute to justify further development if other requirements are met (termed DN-2 level activity). Minimum quantitative activity limits for additional P388 models (e.g. P388/ADR and P388, IJV) have not been defined. However, the activity limits specified for the intraperitoneal models may be applied as in the majority of instances these models are found to be signficantly […] challenging.
(§8) The log10 cell kill was calculated from the following formula: [formula] where T-C is the tumor difference in the median day of death between the treated (T) and the control (C) groups and Td is the tumor doubling time (in days), the latter estimated from the best fit straight line from a log-linear growth plot of the control-group tumors in exponential growth. The conversion of the T-C values to log10 cell kill is possible because the Td for tumors regrowing post-treatment approximated the Td values of the tumors in untreated control mice.

[6] = tested on: P388 leukemia; experiment: In vivo antitumor assay, P388(ip); settings: P388(ip), qd 1,5,9; for ILS %: increased life span; for LOG KILL: log10 cell kill
Text: as §1, §2, §6, §4, §7, §8

[7] = P388(ip), drug route ip, qd 1,5,9
[8] = P388(ip), drug route iv, qd 1,5,9

Structure (SMILES)	MTD [1] [mg/kg]	T/C % [2] [%]	MTD [3] [mg/kg]	T/C % [4] [%]	MTD [5, 7] [mg/kg]	MTD [5, 8] [mg/kg]	ILS % ([6]; drug route ip) [%]	LOG KILL ([6]; drug route ip)	ILS % ([6]; drug route iv) [%]	LOG KILL ([6]; drug route iv)	MTD ([5]; iv) [mg/kg]
Cc1cc(-c2c(F)cc3c(=O)c(Cc4c(O)cccc4O)cn(C4CC4)c3c2F)cc(C)n1 [Example 26, 1-Cyclopropyl-6,8-difluoro-7-[2,6-dimethyl-4-pyridinyl]-3-[2,6-dihydroxyphenylmethyl]-1,4-dihydroquinoline-4-one]	30	46	8.1	20	12	15	100	7.3	80	5.8	–
Cc1cc(-c2c(F)cc3c(=O)c(Cc4ccccc4O)cn(C4CC4)c3c2F)cc(C)n1 [Example 30]	148	42	304	6	456	120	120	8.8	20	1.5	–
Cc1cc(-c2c(F)cc3c(=O)c(Cc4ccc(O)cc4O)cn(C4CC4)c3c2F)cc(C)n1 [Example 33]	33	> 100	19	8	19	–	50	3.6	50	3.6	37
